Measured values from patent US20220128542A1, “TREATMENT EFFICIENCY EVALUATION” (TX MEDIC AB, priority 2019, published 2022).

Tested on: brain of rats subjected to severe traumatic brain injury (sTBI)
Assay: Ingenuity pathway analysis of differentially regulated genes after sTBI (canonical pathways, diseases and molecular functions; Example 4)
Set-up: species or system rat
Conditions: 2 days after TBI
Experimental: Pathway analysis of the differentially regulated genes was carried out using the Ingenuity pathway analysis package. The analysis was performed with special reference to pathways and molecular processes and diseases associated with neurodegenerative disease, including dementia, Alzheimer's disease, ALS, TBI and stroke, and with scarring and fibrosis, including glaucoma and normal pressure hydrocephalus (NPH) after subarachnoid haemorrhage.

[1] = TBI + 1 mg/kg LMW-DS relative to control

## sodium salt of dextran sulfate [LMW-DS]
TBI + 1 mg/kg LMW-DS
  Abdominal cancer (disease/function), z score: −1.538
  Abdominal carcinoma (disease/function), z score: −1.715
  Abdominal neoplasm (disease/function), z score: −0.154
  Activation of blood cells (disease/function), z score: 0.086
  Activation of cells (disease/function), z score: 0.836
  Activation of leukocytes (disease/function), z score: 0.086
  Activation of lymphocytes (disease/function), z score: −1.158
  Adhesion of tumor cell lines (disease/function), z score: 2.074
  Apoptosis (disease/function), z score: −0.337
  Apoptosis of muscle cells (disease/function), z score: 0.041
  Behavior (disease/function), z score: 1.334
  Binding of tumor cell lines (disease/function), z score: 2.397
  Carcinoma (disease/function), z score: −0.127
  Cell death (disease/function), z score: −0.793
  Cell death of blood cells (disease/function), z score: 1.082
  Cell death of immune cells (disease/function), z score: 1.001
  Cell movement (disease/function), z score: 1.948
  Cell movement of muscle cells (disease/function), z score: −0.26
  Cell movement of vascular smooth muscle cells (disease/function), z score: −0.588
  Cell proliferation of T lymphocytes (disease/function), z score: −1.097
  Cellular homeostasis (disease/function), z score: 0.19
  Development of connective tissue cells (disease/function), z score: −0.332
  Differentiation of bone cells (disease/function), z score: −0.341
  Differentiation of connective tissue cells (disease/function), z score: 0.73
  Differentiation of hematopoietic progenitor cells (disease/function), z score: 0.487
  Differentiation of osteoclasts (disease/function), z score: −0.223
  Digestive organ tumor (disease/function), z score: −0.604
  Experimentally-induced arthritis (disease/function), z score: −0.816
  Extracranial solid tumor (disease/function), z score: 0.056
  Genital tumor (disease/function), z score: 0.13
  IL-1 Signaling canonical pathway, effect: Inhibited
  Incidence of tumor (disease/function), z score: −1.131
  Inflammation of absolute anatomical region (disease/function), z score: −1.359
  Inflammation of body cavity (disease/function), z score: −1.757
  Inflammation of joint (disease/function), z score: −0.053
  Inflammation of organ (disease/function), z score: −1.295
  Inflammatory response (disease/function), z score: 1.159
  Interaction of mononuclear leukocytes (disease/function), z score: 1.626
  Leukocyte migration (disease/function), z score: 1.296
  Leukopoiesis (disease/function), z score: 1.185
  Lymphopoiesis (disease/function), z score: 0.583
  Malignant solid tumor (disease/function), z score: −0.562
  Migration of cells (disease/function), z score: 2.093
  Necrosis (disease/function), z score: −0.361
  Non-hematologic malignant neoplasm (disease/function), z score: −0.243
  Osteoarthritis Pathway canonical pathway, effect: Inhibited
  Pelvic tumor (disease/function), z score: −0.651
  Proliferation of blood cells (disease/function), z score: −1.083
  Proliferation of lymphatic system cells (disease/function), z score: −1.112
  Proliferation of lymphocytes (disease/function), z score: −0.852
  Quantity of blood cells (disease/function), z score: −1.479
  Quantity of bone (disease/function), z score: −1.985
  Quantity of cells (disease/function), z score: −0.765
  Quantity of connective tissue cells (disease/function), z score: 0.637
  Quantity of leukocytes (disease/function), z score: −1.163
  Quantity of lymphatic system cells (disease/function), z score: −0.701
  Quantity of phagocytes (disease/function), z score: −2.061
  Rheumatic Disease (disease/function), z score: −0.053
  Role of NFAT in Regulation of the Immune Response canonical pathway, effect: Activated
  Solid tumor (disease/function), z score: −0.186
  Survival of organism (disease/function), z score: −0.095
  Synthesis of hormone (disease/function), z score: 0.977
  Thrombus (disease/function), z score: 1
  Transcription of RNA (disease/function), z score: 1.519
  Transport of molecule (disease/function), z score: 2.421
[1]
  IL-1 Signaling canonical pathway, z score: −1
  Osteoarthritis Pathway canonical pathway, z score: −1.342
  Role of NFAT in Regulation of the Immune Response canonical pathway, z score: 0.378
TBI + 5 mg/kg LMW-DS
  Abdominal cancer (disease/function), z score: −2.553
  Abdominal carcinoma (disease/function), z score: −2.631
  Abdominal neoplasm (disease/function), z score: −0.927
  Adrenomedullin Signaling pathway canonical pathway, effect: Inhibited
